Measurements published in PubChem BioAssay AID1918998 (Molecular Pharmacology Branch, DTP, NCI, 2023).
pIC50: −log10 of the molar value. Where “and” joins values, the source holds several entries; their conditions need not be identical. Identical values can stand only once.

Tested on: 521955-158-R2-J5-PDC complex spheroid growth
Assay: Anticancer human tumor 521955-158-R2-J5-PDC patient-derived pancreatic carcinoma cell line growth inhibition [AhR]
Conditions: for viability, T/C: stronger effect = lower value
Outline: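 Spheroids combined tumor cells with HUVEC endothelial cells and human MSCs as stroma. AhR antagonists were paired with standard or investigational drugs, each dosed in half-log steps down from near clinical Cmax, or from 10 microM where Cmax was unknown.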

[1] = curve of first compound, second compound 0.1 µM
[2] = curve of first compound, second compound 0.316 µM
[3] = curve of first compound, second compound 1 µM
[4] = curve of first compound, second compound 3.16 µM
[5] = curve of first compound, second compound 10 µM
[6] = second compound 0.1 µM, first compound 0.0316 µM
[7] = second compound 0.1 µM, first compound 0.1 µM
[8] = second compound 0.1 µM, first compound 0.316 µM
[9] = second compound 0.1 µM, first compound 1 µM
[10] = second compound 0.1 µM, first compound 3.16 µM
[11] = second compound 0.1 µM, first compound 10 µM
[12] = second compound 0.316 µM, first compound 0.0316 µM
[13] = second compound 0.316 µM, first compound 0.1 µM
[14] = second compound 0.316 µM, first compound 0.316 µM
[15] = second compound 0.316 µM, first compound 1 µM
[16] = second compound 0.316 µM, first compound 3.16 µM
[17] = second compound 0.316 µM, first compound 10 µM
[18] = second compound 1 µM, first compound 0.0316 µM
[19] = second compound 1 µM, first compound 0.1 µM
[20] = second compound 1 µM, first compound 0.316 µM
[21] = second compound 1 µM, first compound 1 µM
[22] = second compound 1 µM, first compound 3.16 µM
[23] = second compound 1 µM, first compound 10 µM
[24] = second compound 3.16 µM, first compound 0.0316 µM
[25] = second compound 3.16 µM, first compound 0.1 µM
[26] = second compound 3.16 µM, first compound 0.316 µM
[27] = second compound 3.16 µM, first compound 1 µM
[28] = second compound 3.16 µM, first compound 3.16 µM
[29] = second compound 3.16 µM, first compound 10 µM
[30] = second compound 10 µM, first compound 0.0316 µM
[31] = second compound 10 µM, first compound 0.1 µM
[32] = second compound 10 µM, first compound 0.316 µM
[33] = second compound 10 µM, first compound 1 µM
[34] = second compound 10 µM, first compound 3.16 µM
[35] = second compound 10 µM, first compound 10 µM
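Throughout, for viability, T/C: spheroids mix tumor cells with HUVEC endothelium and human MSC stroma; luminescence taken as viability surrogate after a week of drug exposure.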

SMILES | pIC50 [1] | pIC50 [2] | pIC50 [3] | pIC50 [4] | pIC50 [5] | viability, T/C [6] | viability, T/C [7] | viability, T/C [8] | viability, T/C [9] | viability, T/C [10] | viability, T/C [11] | viability, T/C [12] | viability, T/C [13] | viability, T/C [14] | viability, T/C [15] | viability, T/C [16] | viability, T/C [17] | viability, T/C [18] | viability, T/C [19] | viability, T/C [20] | other results
CC1(C)CCC(CN2CCN(c3ccc(C(=O)NS(=O)(=O)c4ccc(NCC5CCOCC5)c([N+](=O)[O-])c4)c(Oc4cnc5[nH]ccc5c4)c3)CC2)=C(c2ccc(Cl)cc2)C1 + Cc1cncc(-c2nc(NCCc3c[nH]c4ccccc34)c3ncn(C(C)C)c3n2)c1 | < 5.00 | < 5.00 | < 5.00 | < 5.00 | < 5.00 | 110% | 111% | 102% | 104% | 92.8% | 74.7% | 104% | 109% | 119% | 105% | 99.9% | 79.5% | 111% | 124% | 121% | viability, T/C [21]: 111%; viability, T/C [22]: 111%; viability, T/C [23]: 76.3%; viability, T/C [24]: 146%; viability, T/C [25]: 123%; viability, T/C [26]: 133%; viability, T/C [27]: 120%; viability, T/C [28]: 113%; viability, T/C [29]: 94.9%; viability, T/C [30]: 148%; viability, T/C [31]: 147%; viability, T/C [32]: 138%; viability, T/C [33]: 156%; viability, T/C [34]: 118%; viability, T/C [35]: 102%
COc1ccc([C@@H](O)c2cc(-c3ncnc4cc(N5CCOCC5)ccc34)c(F)cc2Cl)nn1 + CC(CO)NC(=O)c1cc(-c2ccc(Cl)cc2)nn(-c2cnn(C)c2)c1=O | < 5.00 | 5.41 | 5.22 | 5.53 | 5.72 | 94.8% | 90.2% | 95.7% | 89.7% | 61.2% | 50.9% | 82.4% | 98.9% | 99.9% | 83% | 52.3% | 41.5% | 114% | 101% | 96.7% | viability, T/C [21]: 79.3%; viability, T/C [22]: 61.7%; viability, T/C [23]: 40.3%; viability, T/C [24]: 104%; viability, T/C [25]: 86.2%; viability, T/C [26]: 116%; viability, T/C [27]: 73%; viability, T/C [28]: 54.6%; viability, T/C [29]: 42.7%; viability, T/C [30]: 87.7%; viability, T/C [31]: 88.9%; viability, T/C [32]: 79.3%; viability, T/C [33]: 57.9%; viability, T/C [34]: 44.8%; viability, T/C [35]: 35.5%
Nc1ccn(C2OC(CO)C(O)C2(F)F)c(=O)n1 (configuration not stated) + Cc1ccccc1N=Nc1ccc(NC(=O)c2ccnn2C)c(C)c1 | 6.57 | 6.30 | 6.35 | 6.39 | 6.47 | 76.7% | 52.4% | 57% | 28.4% | 13.3% | 14.5% | 66.8% | 52.7% | 85.8% | 22.3% | 13.5% | 12.5% | 66.5% | 52.5% | 71.2% | viability, T/C [21]: 19.2%; viability, T/C [22]: 13.5%; viability, T/C [23]: 12.4%; viability, T/C [24]: 91.2%; viability, T/C [25]: 69.1%; viability, T/C [26]: 62.3%; viability, T/C [27]: 21.8%; viability, T/C [28]: 13.2%; viability, T/C [29]: 14.4%; viability, T/C [30]: 107%; viability, T/C [31]: 93.8%; viability, T/C [32]: 52.1%; viability, T/C [33]: 21.6%; viability, T/C [34]: 17.8%; viability, T/C [35]: 15.6%
COc1cc(C2c3cc4c(cc3C(OC3OC5COC(C)OC5C(O)C3O)C3COC(=O)C23)OCO4)cc(OC)c1O (configuration not stated) + CC(CO)NC(=O)c1cc(-c2ccc(Cl)cc2)nn(-c2cnn(C)c2)c1=O | 5.97 | 5.94 | 6.04 | 6.16 | 6.37 | 85% | 78% | 91.8% | 51.4% | 29.3% | 17% | 92.3% | 102% | 87.5% | 53.4% | 25.5% | 16.6% | 98% | 98.3% | 95.7% | viability, T/C [21]: 46.1%; viability, T/C [22]: 24.5%; viability, T/C [23]: 20.6%; viability, T/C [24]: 93.5%; viability, T/C [25]: 87.5%; viability, T/C [26]: 91.9%; viability, T/C [27]: 31.4%; viability, T/C [28]: 23.6%; viability, T/C [29]: 22.8%; viability, T/C [30]: 76.3%; viability, T/C [31]: 71.4%; viability, T/C [32]: 55.3%; viability, T/C [33]: 33.3%; viability, T/C [34]: 20.4%; viability, T/C [35]: 14.2%
COc1cc(Nc2ncc3c(n2)-c2ccc(Cl)cc2C(c2c(F)cccc2OC)=NC3)ccc1C(=O)O |  |  |  |  |  |  |  |  |  |  |  |  |  |  |  |  |  |  |  |  | viability, T/C (compound 0.0316 µM): 77.4% and 67.8% and 86.3%; viability, T/C (compound 0.1 µM): 85.5% and 81.5% and 77.1%; viability, T/C (compound 0.316 µM): 58.4% and 76.3% and 50%; viability, T/C (compound 1 µM): 57.4% and 60% and 62%; viability, T/C (compound 3.16 µM): 82.1% and 66.4% and 67%; viability, T/C (compound 10 µM): 66.9% and 47.4% and 49.2%; pIC50 (curve of compound): < 5.00 and 5.07
